Reference: ChEMBL document CHEMBL1201862, “PubChem BioAssay data set” (2004)
Calls of active or inactive are those of the source.

Assays:
[1] = biological target: T1, Microphthalmia-associated transcription factor (Homo sapiens, UniProt O75030); assay: TRPM1 promoter luciferase signal decrease, dose response, MITF inhibitor project, cell-based, SK-MEL-5, cherry-picked, set 3 (AID 493073); assay type: functional
T1 sequence (O75030 whole entry): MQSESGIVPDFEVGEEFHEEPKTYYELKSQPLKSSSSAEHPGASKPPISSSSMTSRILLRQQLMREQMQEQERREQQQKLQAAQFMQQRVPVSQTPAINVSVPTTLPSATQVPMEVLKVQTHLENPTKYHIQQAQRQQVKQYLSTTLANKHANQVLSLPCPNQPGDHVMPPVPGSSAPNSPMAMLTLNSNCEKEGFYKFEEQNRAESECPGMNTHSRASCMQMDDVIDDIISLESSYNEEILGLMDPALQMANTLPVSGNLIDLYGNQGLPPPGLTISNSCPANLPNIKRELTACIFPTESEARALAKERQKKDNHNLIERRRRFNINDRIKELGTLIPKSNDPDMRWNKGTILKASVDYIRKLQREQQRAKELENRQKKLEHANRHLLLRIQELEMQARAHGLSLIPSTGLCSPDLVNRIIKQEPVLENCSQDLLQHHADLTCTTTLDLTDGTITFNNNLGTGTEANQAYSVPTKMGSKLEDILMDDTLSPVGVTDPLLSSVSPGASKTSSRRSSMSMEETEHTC

[2] = biological target: Glyceraldehyde-3-phosphate dehydrogenase (Homo sapiens, UniProt P04406)
[3] = biological target: T2, DNA repair protein RAD52 homolog (Homo sapiens, UniProt P43351); assay type: functional, biochemical
T2 sequence (P43351 whole entry): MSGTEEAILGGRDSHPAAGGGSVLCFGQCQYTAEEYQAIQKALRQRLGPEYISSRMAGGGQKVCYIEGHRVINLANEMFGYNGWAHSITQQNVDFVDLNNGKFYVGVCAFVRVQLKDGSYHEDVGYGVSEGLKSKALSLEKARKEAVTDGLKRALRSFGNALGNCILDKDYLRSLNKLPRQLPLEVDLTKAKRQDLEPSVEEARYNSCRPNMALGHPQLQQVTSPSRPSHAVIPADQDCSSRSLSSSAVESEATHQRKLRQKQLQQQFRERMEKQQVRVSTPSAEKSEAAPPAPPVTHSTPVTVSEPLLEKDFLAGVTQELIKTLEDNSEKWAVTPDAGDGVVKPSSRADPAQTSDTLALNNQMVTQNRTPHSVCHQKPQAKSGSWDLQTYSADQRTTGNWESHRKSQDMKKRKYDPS

[4] = P. falciparum 3D7-ScDHODH growth inhibitors, dose response, SYBR Green, dry powder samples (AID 1159570); assay type: functional, cell-based;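 also: parasite growth measured after 72 hours of compound exposure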
[5] = P. falciparum Dd2 growth inhibitors, dose response, SYBR Green, cherry-picked samples (AID 1159567); assay type: functional, cell-based
[6] = P. falciparum Dd2 growth inhibitors, dose response, SYBR Green, dry powder samples (AID 1159566); assay type: functional, cell-based;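 also: potency for growth inhibition with lower SYBR green DNA signal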
[7] = P. falciparum ATP4 D1247Y mutant growth inhibitors, dose response, NITD609-resistant line, SYBR Green, dry powder (AID 1159571); assay type: functional, cell-based;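 also: parasites synchronized at ring stage by sorbitol before testing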
[8] = inhibitors of firefly luciferase expression or activity, dose response, H4 neuroglioma cells, luminescence (AID 1990); assay type: functional, cell-based
[9] = Luminescence Cell-Based Dose Response HTS to Identify Inhibitors of 5'UTR Stem-Loop Driven Prion Protein mRNA Translation in H4 Neuroglioblastoma Cells. [Related pubchem assays: 1827 (Project Summary), 1813 (Primary HTS)]; assay type: functional
[10] = inhibitors of SNCA 5'UTR-driven reporter translation, confirmation, H4 neuroglioma cells, luminescence (AID 1988); assay type: functional, cell-based
[11] = inhibitors of intracellular T. cruzi replication, confirmation, NIH3T3 host cells, beta-gal luminescence (AID 2044); assay type: functional, cell-based;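 also: intracellular parasites grown in NIH/3T3 mouse fibroblasts as host cells; luminescent beta-galactosidase reporter signal from transgenic T. cruzi replicating inside host cells; inhibitors lower the luminescence signal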
[12] = cytotoxicity toward NIH3T3 fibroblasts, dose response, counter-screen, cell-based, ATP luminescence, mouse fibroblasts (AID 2010); assay type: functional;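 also: cells exposed to compound for about 90 hours before reading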
[13] = THP-1 cell cytotoxicity, dose response, cytotoxicity control for non-replicating M. tuberculosis project (AID 489025); assay type: functional
[14] = cells; assay type: functional
[15] = biological target: T3, Replicative DNA helicase DnaB (Mycobacterium tuberculosis, UniProt P9WMR3); assay: DnaB intein splicing inhibitors, dose response, biochemical, cell-free fluorescence (AID 449749); assay type: functional
T3 sequence (P9WMR3 whole entry): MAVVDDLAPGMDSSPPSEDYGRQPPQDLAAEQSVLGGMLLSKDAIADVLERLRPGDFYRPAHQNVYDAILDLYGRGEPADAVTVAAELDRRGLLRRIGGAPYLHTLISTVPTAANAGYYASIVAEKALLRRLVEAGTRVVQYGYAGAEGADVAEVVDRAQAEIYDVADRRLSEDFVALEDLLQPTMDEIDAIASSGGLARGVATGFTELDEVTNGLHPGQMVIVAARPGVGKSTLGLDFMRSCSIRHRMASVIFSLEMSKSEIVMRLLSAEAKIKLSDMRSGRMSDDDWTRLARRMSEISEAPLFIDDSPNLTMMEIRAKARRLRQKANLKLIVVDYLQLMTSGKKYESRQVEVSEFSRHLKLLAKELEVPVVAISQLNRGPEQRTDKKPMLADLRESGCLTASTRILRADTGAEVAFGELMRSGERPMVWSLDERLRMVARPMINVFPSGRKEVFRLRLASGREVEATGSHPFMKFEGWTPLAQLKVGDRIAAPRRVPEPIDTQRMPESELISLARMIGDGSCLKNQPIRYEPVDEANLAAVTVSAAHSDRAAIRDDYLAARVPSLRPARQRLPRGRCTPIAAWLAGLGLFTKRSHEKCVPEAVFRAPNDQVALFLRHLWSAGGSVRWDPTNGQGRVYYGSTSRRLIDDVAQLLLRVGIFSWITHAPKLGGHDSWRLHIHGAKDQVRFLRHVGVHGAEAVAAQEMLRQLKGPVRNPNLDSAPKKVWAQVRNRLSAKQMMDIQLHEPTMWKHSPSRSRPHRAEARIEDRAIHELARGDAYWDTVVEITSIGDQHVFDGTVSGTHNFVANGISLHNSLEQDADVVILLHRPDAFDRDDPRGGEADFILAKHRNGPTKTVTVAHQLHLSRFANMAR

[16] = tested on: Vero; assay: Vero cell cytotoxicity, cytotoxicity control for flavivirus capping enzyme inhibitors (AID 588742); assay type: functional; conditions: Chlorocebus sabaeus
[17] = biological target: T4, Protein RecA (Mycobacterium tuberculosis, UniProt P9WHJ3); assay: Fluorescence Cell-Free Homogeneous Dose Retest to Identify Inhibitors of RecA-Intein Splicing Activity. [Related pubchem assays (depositor defined):AID2097, AID2223, AID489010, AID492950]; assay type: functional
T4 sequence (P9WHJ3 whole entry): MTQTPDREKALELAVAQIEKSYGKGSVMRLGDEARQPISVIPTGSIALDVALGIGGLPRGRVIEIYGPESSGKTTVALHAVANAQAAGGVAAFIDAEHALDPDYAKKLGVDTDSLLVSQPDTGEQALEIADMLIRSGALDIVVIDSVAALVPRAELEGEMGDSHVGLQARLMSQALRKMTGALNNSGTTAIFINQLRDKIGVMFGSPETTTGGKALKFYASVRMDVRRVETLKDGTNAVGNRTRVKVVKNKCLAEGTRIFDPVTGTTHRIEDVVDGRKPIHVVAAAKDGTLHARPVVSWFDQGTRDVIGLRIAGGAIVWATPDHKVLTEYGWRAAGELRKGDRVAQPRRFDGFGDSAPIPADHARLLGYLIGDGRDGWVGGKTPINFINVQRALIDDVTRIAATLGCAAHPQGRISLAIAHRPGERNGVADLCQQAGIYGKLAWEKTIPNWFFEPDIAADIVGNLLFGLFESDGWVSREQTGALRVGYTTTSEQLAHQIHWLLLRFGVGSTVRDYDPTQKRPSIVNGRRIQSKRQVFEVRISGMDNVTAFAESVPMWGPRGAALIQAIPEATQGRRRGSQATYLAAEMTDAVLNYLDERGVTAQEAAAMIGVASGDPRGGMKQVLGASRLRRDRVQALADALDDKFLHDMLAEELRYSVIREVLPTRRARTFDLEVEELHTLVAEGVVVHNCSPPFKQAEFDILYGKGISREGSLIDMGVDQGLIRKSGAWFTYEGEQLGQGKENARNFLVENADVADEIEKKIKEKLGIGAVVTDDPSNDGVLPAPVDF

[18] = biological target: Genome polyprotein (dengue virus type 2, UniProt P29990); assay: Dengue-2 NS5 methyltransferase inhibitors, primary screen, biochemical, confirmation dose response (AID 588689); assay type: functional
[19] = Shn3 3'UTR reporter inhibitors, dose response, cell-based, Clone20 osteoblasts, firefly luciferase, cherry-picked (AID 624132); assay type: functional;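 also: firefly luciferase luminescence from reporter carrying the Shn3 3'UTR in osteoblasts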
[20] = control 3'UTR Renilla luciferase suppression, dose response, counter-screen for Shn3 inhibitor project, cell-based, Clone20-Shn3RL, cherry-picked (AID 624133); assay type: functional
[21] = tested on: Escherichia coli; assay: microbe, parasite or virus in culture
[22] = Luminescence Cell-Based Dose Retest to Confirm Inhibitors of Cancer Stem Cells. [Related pubchem assays (depositor defined):AID2717, AID2721]; assay type: functional; conditions: Homo sapiens
[23] = HeLa cell cytotoxicity, dose response, cytotoxicity control for MgcRacGAP inhibitor project (AID 624300); assay type: functional
[24] = biological target: T5, Rac GTPase-activating protein 1 (Homo sapiens, UniProt Q9H0H5); assay: MgcRacGAP GTPase-activating activity inhibitors, confirmation, biochemical, ADP Hunter fluorescence, primary and confirmatory (AID 624330); assay type: functional
T5 sequence (Q9H0H5 whole entry): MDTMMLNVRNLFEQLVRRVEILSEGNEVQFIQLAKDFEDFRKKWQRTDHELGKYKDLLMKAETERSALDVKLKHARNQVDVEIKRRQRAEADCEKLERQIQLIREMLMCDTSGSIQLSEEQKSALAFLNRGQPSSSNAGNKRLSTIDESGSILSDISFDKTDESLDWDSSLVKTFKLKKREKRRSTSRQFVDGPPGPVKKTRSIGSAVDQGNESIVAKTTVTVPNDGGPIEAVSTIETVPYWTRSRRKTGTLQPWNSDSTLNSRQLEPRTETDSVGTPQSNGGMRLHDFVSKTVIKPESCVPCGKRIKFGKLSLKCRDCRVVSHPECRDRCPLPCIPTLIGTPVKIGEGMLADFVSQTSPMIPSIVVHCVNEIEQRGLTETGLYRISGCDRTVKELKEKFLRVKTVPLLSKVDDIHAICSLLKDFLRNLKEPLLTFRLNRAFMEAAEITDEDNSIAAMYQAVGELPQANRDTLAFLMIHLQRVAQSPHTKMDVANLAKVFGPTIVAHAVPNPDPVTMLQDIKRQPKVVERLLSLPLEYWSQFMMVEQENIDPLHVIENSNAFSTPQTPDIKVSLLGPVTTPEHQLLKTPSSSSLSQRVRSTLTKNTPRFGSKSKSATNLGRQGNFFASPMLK

[25] = biological target: DNA dC->dU-editing enzyme APOBEC-3G (Homo sapiens, UniProt Q9HC16); assay: Dose Response confirmation of small molecule APOBEC3G DNA Deaminase Inhibitors via a fluorescence-based single-stranded DNA deaminase assay. [Related pubchem assays (depositor defined):AID493012, AID493028]; assay type: functional
[26] = biological target: Estrogen receptor beta (Homo sapiens, UniProt Q92731);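 also: recombinant ER-beta bound to coactivator SRC1 peptide in presence of estradiol agonist; inhibitors block coactivator peptide binding and lower the FRET signal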
Chain of Estrogen receptor beta (Q92731 whole entry): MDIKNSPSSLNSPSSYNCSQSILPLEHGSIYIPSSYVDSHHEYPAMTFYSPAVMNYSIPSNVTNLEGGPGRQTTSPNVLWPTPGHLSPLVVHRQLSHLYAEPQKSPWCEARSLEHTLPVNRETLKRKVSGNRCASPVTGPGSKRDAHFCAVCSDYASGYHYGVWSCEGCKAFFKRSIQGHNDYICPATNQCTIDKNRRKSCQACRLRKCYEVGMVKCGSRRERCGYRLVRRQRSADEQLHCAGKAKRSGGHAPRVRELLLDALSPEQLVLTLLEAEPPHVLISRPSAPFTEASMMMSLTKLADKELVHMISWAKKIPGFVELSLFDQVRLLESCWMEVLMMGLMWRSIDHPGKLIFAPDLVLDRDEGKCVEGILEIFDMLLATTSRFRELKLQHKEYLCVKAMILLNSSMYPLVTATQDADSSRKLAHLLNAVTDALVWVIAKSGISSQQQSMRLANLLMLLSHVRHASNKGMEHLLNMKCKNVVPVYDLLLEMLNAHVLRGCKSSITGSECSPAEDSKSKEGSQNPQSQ

Chain of Genome polyprotein (P29990 2492-3391 limits assumed): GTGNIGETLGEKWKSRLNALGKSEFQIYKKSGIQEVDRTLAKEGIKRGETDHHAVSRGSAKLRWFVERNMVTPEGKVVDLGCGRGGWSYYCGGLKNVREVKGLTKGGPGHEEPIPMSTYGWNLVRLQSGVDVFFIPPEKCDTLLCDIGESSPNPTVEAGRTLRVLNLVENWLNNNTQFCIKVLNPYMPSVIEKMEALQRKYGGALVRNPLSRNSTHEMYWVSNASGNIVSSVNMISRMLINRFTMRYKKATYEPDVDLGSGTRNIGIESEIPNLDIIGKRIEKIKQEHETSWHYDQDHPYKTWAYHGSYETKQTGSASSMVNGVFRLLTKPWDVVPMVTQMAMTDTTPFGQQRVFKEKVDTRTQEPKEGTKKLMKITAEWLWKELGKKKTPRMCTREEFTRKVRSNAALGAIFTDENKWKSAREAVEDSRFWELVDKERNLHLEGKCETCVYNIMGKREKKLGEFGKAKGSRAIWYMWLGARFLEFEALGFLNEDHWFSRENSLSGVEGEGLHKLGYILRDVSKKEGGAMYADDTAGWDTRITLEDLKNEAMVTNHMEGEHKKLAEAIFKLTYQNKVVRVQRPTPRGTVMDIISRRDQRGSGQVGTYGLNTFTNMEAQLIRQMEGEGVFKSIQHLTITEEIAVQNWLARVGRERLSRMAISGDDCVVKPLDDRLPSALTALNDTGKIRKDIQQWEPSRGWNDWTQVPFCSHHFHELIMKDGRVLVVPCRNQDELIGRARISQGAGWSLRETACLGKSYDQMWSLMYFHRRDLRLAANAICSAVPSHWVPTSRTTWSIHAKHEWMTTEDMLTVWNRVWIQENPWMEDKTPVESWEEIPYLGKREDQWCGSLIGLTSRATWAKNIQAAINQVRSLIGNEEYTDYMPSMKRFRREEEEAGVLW
Chain of Glyceraldehyde-3-phosphate dehydrogenase (P04406 whole entry): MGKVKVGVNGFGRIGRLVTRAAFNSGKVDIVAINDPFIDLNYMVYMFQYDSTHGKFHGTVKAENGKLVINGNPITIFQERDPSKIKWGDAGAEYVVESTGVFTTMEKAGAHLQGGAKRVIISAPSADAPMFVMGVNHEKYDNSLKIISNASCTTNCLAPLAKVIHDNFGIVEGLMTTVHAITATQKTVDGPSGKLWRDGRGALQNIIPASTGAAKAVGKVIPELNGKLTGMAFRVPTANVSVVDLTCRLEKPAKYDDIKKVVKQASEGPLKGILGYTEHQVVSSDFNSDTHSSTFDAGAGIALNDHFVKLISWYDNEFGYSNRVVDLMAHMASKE
Chain of DNA dC->dU-editing enzyme APOBEC-3G (Q9HC16 whole entry): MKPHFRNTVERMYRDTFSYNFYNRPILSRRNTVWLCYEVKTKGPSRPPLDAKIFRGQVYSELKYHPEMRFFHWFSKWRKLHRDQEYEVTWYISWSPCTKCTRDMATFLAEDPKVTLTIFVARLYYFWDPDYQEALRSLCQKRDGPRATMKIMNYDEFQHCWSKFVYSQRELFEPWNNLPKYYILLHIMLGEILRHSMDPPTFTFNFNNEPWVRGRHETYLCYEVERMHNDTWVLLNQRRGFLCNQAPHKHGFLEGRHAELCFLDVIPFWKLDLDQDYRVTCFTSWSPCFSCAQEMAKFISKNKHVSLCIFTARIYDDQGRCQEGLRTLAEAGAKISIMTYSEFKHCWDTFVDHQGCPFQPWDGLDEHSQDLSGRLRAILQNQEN

CCOC(=O)N1C(=O)[C@](CC)(c2ccccc2)N1C(=O)OCC
AC50 [1]: 10 µM (active)

Cc1onc(-c2ccccc2Cl)c1C(=O)Nc1ccc(S(N)(=O)=O)cc1
IC50 [2]: > 100 µM (not active)

CN(C)CCNC(=O)c1ccc(-c2cn3c(-c4ccc(Oc5ccccc5)cc4)cnc3cn2)cc1
AC50 [3]: 5.06 µM (active)

C[C@H]1CN([C@@H](C)CO)C(=O)c2cc(NC(=O)Nc3ccc(C(F)(F)F)cc3)ccc2O[C@@H]1CN(C)C(=O)Nc1cccc2ccccc12
AC50 [4]: 1.42 µM (active)
AC50 [5]: 2.41 µM (active)
AC50 [6]: 1.37 µM (active)
AC50 [7]: 1.56 µM (active)

COc1cc2cc(C(c3nnnn3C3CCCCC3)N(C)C3CCCCC3)c(O)nc2cc1OC (stereo not drawn)
EC50 [8]: 15.7 µM (active)
EC50 [9]: > 120 µM (not active)
EC50 [10]: > 120 µM (not active)

O=C(N/N=C\c1ccc([N+](=O)[O-])o1)C1COc2ccccc2O1 (stereo not drawn)
EC50 [11]: 0.532 µM (active)
EC50 [12]: > 60 µM (inconclusive)
CC50 [13]: 32.5 µM (active)
AC50 [1]: 7.21 µM (active)
IC50 [14]: 4.2 µM (active)

Cc1cccc(CS(=O)(=O)c2ncc(Cl)c(C(=O)Nc3nnc(C(C)C)s3)n2)c1
AC50 [15]: 1.2 µM (active)
CC50 [16]: 25.6 µM (active)
EC50 [17]: 0.312 µM (active)
IC50 [18]: 94.3 µM (active)
AC50 [19]: 1.62 µM (active)
AC50 [20]: 4.36 µM (active)

O=C1/C(=C/c2ccccn2)COc2ccccc21
CC50 [13]: 28.2 µM (active)
IC50 [14]: 20.9 µM (active)

O=C(NCCCCCCCN1CCCCCCC1)C(C1CCCCC1)C1CCCCC1
AC50 [3]: 8.88 µM (active)

COc1ccc(/C=C(/NC(=O)c2cccc([N+](=O)[O-])c2)C(=O)O)cc1
AC50 [21]: 84.9 µM (active)

O=C(NNC(=O)c1ccc2ncccc2c1)c1ccc(Cl)cc1
EC50 [8]: > 120 µM (not active)
EC50 [9]: > 120 µM (not active)
EC50 [10]: > 120 µM (not active)

Oc1ccc(-c2csc(Nc3ccccn3)n2)c(O)c1
AC50 [22]: 1.74 µM (active)
CC50 [23]: 100 µM (active)
IC50 [24]: 59.5 µM (active)

Cc1onc(-c2ccccc2Cl)c1C(=O)NCc1ccccn1
EC50 [8]: > 120 µM (not active)
EC50 [9]: > 120 µM (not active)
EC50 [10]: > 120 µM (not active)

COC(=O)c1ccc(C2CC(=O)Nc3cc(OC)c(OC)cc32)cc1 (stereo not drawn)
AC50 [21]: 32 µM (active)

CC(OC(=O)c1ccc([N+](=O)[O-])s1)C(=O)NC1CCCCC1C (stereo not drawn)
AC50 [1]: 12 µM (active)
IC50 [14]: 14.1 µM (active)

O=C1C=CC(=O)C=C1 [BENZOQUINONE]
IC50 [25]: 36.1 µM (active)

CCn1c(NN)nc2sc3c(c2c1=O)CCC3
IC50 [26]: > 50 µM (not active)

CCOc1cccc2sc(N(CCCN(C)C)C(=O)c3ccc(C(=O)c4ccccc4)cc3)nc12
AC50 [3]: 17.3 µM (active)

COc1ccc(/C=N/NC(=O)c2cccnc2)cc1COc1ccc([N+](=O)[O-])c(C)c1
EC50 [8]: > 120 µM (not active)
EC50 [9]: 28.9 µM (active)
EC50 [10]: 8.08 µM (active)
